# From ChEMBL document CHEMBL3301361, “Experimental in vitro DMPK and physicochemical data on a set of publicly disclosed compounds”
# What was measured:
# physchem [1] = settings: octan-1-ol/water, pH 7.4, LogD7.4
# physchem [2] = settings: pH 7.4 buffer
SMILES,logD (physchem [1]),solubility thermodynamic (physchem [2]) [µM]
CCn1c(=O)c2[nH]c(-c3ccccc3)nc2n(CC)c1=O,3.3,2.1
O=C(NCCSCc1ccccc1)c1ccccc1,3.3,72.4
CSCc1cc(N2CCOCC2)nc(-c2ccccc2)n1,3.26,55
Nc1nc(-c2ccc(Cl)cc2)cs1,3.31,83.2
O=C(NCC(=O)N(CCO)c1ccccc1)c1cc2cc(Cl)ccc2[nH]1,3.37,1.8
CN(C(=O)NCc1ccccc1)C1CCN(CCC(c2ccccc2)c2ccccc2)CC1,3.4,25.7
COc1ccc(-c2c(-c3ccc(O)cc3O)n[nH]c2C)cc1,3.37,209
O=C1COC2(CCN(S(=O)(=O)c3ccc(-c4ccc5cccnc5c4)cc3)CC2)CN1C1CC1,3.24,1.9
CCCSc1ncccc1C(=O)N(C)C1CCCCC1,3.36,955
CCCSc1nc(NC)ccc1C(=O)N[C@H]1C2CC3CC1C[C@](O)(C3)C2,3.27,46.8
CS(=O)(=O)n1c2ccccc2c2cc(NC(=O)CCc3ccncc3)ccc21,3.4,22.9
O=C(CCc1ccncc1)Nc1ccc(C(=O)c2ccccc2)cc1,3.4,8.1
Oc1cccc2nc(-c3ccccc3)cc(O)c12,3.37,5
CC(C)C[C@H](NC(=O)N1CCOCC1)C(=O)N[C@H](/C=C/S(=O)(=O)c1ccccc1)CCc1ccccc1,3.4,17

# Other lines, results leading:
logD (physchem [1]),solubility thermodynamic (physchem [2]) [µM],SMILES
3.38,107,Cc1nc(CSc2ccc(Cl)cc2)cc(N2CCOCC2)n1
3.29,132,FC(F)(F)c1nnc2ccc(N3CCCCCC3)nn12
3.4,123,CC(Nc1ncnc2ccccc12)c1ccccc1 (stereo unspecified)
3.3,25.1,COc1ccc(-c2nc3n(c2Br)CCC3)cc1
3.34,1.1,COc1ccc(-c2csc(N(CCCN3CCOCC3)C(=O)c3ccco3)n2)cc1
3.3,1.5,O=C(CN1CCOCC1)Nc1ccc(-c2cccc3c(=O)cc(N4CCOCC4)oc23)cc1OCC1CC1
3.3,126,COCCOc1cc(Nc2nccc(N(C)c3cc(CO)ccc3C)n2)cc(N2CCOCC2)c1
3.35,813,COc1cc2ncnc(Nc3cc(NC(=O)c4ccnc(N5CCOCC5)c4)ccc3C)c2cc1OCCN1CCCCC1
3.29,2.2,CCOc1cc2nccc(Oc3cnc(CC(=O)Nc4n[nH]c(CC)c4C)c(OC)c3)c2cc1OC
3.37,575,Cc1ccc(NC(=O)N2CCN(C[C@@H]3CCCN(C4CC4)C3)CC2)cc1Cl
3.35,13.5,CN1CCC(n2cc(-c3cnc(N)c(-c4nc5ccc(F)cc5o4)c3)cn2)CC1
3.3,1.4,COc1cc2ncnc(Nc3ccc(Cl)c(O)c3)c2cc1OC
3.3,20,COc1cc2ncnc(Nc3ccc(F)c(Cl)c3)c2cc1OCCCN1CCCCC1
3.3,871,CCN(CC)C(=O)c1ccc2[nH]c(-c3cc(C)cc(C)c3)c(CCNCCCCc3ccncc3)c2c1
3.3,64.6,COc1cc2ncnc(Nc3ccc(F)c(Cl)c3)c2cc1OCCN1CCN(C)CC1
3.29,38.9,COc1cc2ncnc(NCc3ccccc3)c2cc1OC
3.25,30.9,Clc1ccc2c(c1Nc1ccnc(Nc3cc(N4CCOCC4)cc(N4CCOCC4)c3)n1)OCO2
3.37,138,CCCS(=O)(=O)c1ccc(Nc2nccc(-c3cnc(C)n3C(C)C)n2)cc1
3.37,22.9,COc1ccccc1Nc1cc(Oc2cc(C)c(C)nc2-c2ccccn2)ccn1
